The target in series [1] is T1, SHP1 (Homo sapiens, UniProt P29350).
T1 construct: SHP1, residues 245-543; made in house; host or cells: E. coli BL21(DE3)
Nature of the series: Time-course pNPP progress-curve inactivation kinetics. The series is classed as biochemical. The conditions noted are these: for k inact/K I for SHP1 inactivation: time-course pNPP assay. The text has this:
Covalent inhibitors generally inactivate their targets through a two‐step process, starting with a reversible binding event (characterized by the dissociation constant K I) and followed by covalent bond formation (represented by the first‐order rate constant of inactivation k inact). Although IC50 values are often utilized to assess the potency of covalent inhibitors, the second‐order rate constant k inact/K I is preferred because it provides a measure of covalent inhibition in a time‐ and dose‐independent manner.^[ [60], [62], [67], [68] ^] Because k inact/K I measurement can be time and labor‐intensive, we developed an efficient method to determine the observed first‐order rate constant (k obs) from the analysis of a progress curve in the presence of an inhibitor.^[ [69] ^] The k obs value is then plotted as a function of inhibitor concentration to obtain the kinetic parameters k inact, K I, and k inact/K I.^[ [70] ^] […] To verify SHP1 covalent modification by Z57117023, we ascertained SHP1 covalent adduct formation by intact protein liquid chromatography‐mass spectrometry (LC‐MS).^[ [58] ^] A single SHP1‐Z57117023 adduct was observed when SHP1 was incubated with Z57117023, with a mass shift of 295.21 Da (calculated 295.54 Da) (Figure 1e), consistent with the loss of a chlorine atom from Z57117023.
Phosphatase Activity Assay: To determine the inhibition kinetics of acquired hits, repurchased compounds from Enamine were serially diluted in a 96-well plate followed by the addition of pNPP at Km concentrations of corresponding proteins. The reaction was initiated by the addition of 20 nM proteins, and the reaction progression was monitored at OD405 using a CLARIOstar Plus Microplate Spectrophotometer (BMG Labtech) for 60 minutes. After background subtraction, the obtained progress curves were fitted to the equation A = v0(1-e^-kt)/k, where A is the absorbance at 405 nm, v0 is the initial rate, k is the kobs of the corresponding reaction. The acquired kobs was then plotted against inhibitor concentrations, which were fitted to kobs = kinact[I]/(KI+[I]), where kinact is the maximum rate of inactivation, [I] is the inhibitor concentration, and KI is the reversible binding affinity of the compound to the protein. Data were fitted using Prism GraphPad 10.1.1.

A further series has as its target T2, SHP2 (Homo sapiens, UniProt Q06124).
T2 construct: SHP2, residues 224-528; made in house; host or cells: E. coli BL21(DE3)
T2 sequence (Q06124 224-528): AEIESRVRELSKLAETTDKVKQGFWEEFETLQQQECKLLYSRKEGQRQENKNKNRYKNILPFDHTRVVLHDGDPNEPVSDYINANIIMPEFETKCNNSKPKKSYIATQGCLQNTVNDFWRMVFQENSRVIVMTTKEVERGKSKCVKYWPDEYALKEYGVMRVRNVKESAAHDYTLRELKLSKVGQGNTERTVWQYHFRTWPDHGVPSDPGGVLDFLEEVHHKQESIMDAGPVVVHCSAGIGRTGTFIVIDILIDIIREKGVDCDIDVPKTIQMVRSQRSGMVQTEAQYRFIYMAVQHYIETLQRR
In words: IC50 after preincubation, DiFMUP phosphatase assay. The series is classed as biochemical. How it is done:
(§1) To further confirm the time-dependent inhibition and determine the IC50 of acquired hits, repurchased compounds from Enamine were serially diluted in a 96-well plate, followed by the addition of proteins at 200 nM. After 10-minute and 60-minute preincubation, 2 µL of the mixture was transferred into 100 µM 6,8-Difluoro-4-Methylumbelliferyl Phosphate (DiFMUP, Invitrogen, cat# D6567) at a final volume of 200 µL. The reaction was allowed to proceed for 5 minutes and quenched by the addition of 40 µl of a 160 µM solution of bpV(Phen) (Sigma-Aldrich, cat# SML0889). The fluorescence signal was measured using a CLARIOstar Plus Microplate Spectrophotometer (BMG Labtech) using excitation and emission wavelengths of 340 nm and 450 nm, respectively. Data were fitted using Prism GraphPad 10.1.1.

In a further series the target is T3, PTP1B (Homo sapiens, UniProt P18031).
T3 construct: PTP1B, residues 1-321; made in house; host or cells: E. coli BL21(DE3)
T3 sequence (P18031 1-321, species assumed): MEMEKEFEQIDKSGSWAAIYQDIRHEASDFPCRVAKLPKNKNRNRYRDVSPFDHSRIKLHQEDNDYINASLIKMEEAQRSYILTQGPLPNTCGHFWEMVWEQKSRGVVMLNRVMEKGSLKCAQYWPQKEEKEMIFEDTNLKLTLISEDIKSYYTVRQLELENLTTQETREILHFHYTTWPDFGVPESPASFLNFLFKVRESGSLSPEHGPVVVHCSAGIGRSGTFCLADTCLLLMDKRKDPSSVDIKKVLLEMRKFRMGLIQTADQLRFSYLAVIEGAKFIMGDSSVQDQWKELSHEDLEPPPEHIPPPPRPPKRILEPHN
Nature of the series: IC50 after preincubation, DiFMUP phosphatase assay. The series is classed as biochemical. How it is done: as §1

A further series addresses T4, PTPN22 (Homo sapiens, UniProt Q9Y2R2).
T4 construct: LYP/PTPN22, residues 1-294; made in house; host or cells: E. coli BL21(DE3)
T4 sequence (Q9Y2R2 1-294): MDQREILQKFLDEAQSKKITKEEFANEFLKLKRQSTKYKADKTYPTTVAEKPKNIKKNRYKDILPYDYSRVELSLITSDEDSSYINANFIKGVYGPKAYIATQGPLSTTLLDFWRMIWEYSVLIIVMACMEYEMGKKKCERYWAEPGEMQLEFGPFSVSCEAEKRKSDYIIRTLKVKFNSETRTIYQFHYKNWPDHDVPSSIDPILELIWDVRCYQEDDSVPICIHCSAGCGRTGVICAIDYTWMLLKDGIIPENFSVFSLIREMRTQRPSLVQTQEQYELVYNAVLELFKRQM
In words: IC50 after preincubation, DiFMUP phosphatase assay. Format: biochemical. How it is done:
as §1

Series [2] addresses T1, SHP1. In words: Intact protein LC-MS covalent adduct formation. Format: binding. Particulars: 60 min, room temperature, pH 7.0; single adduct. How it is done:
(§2) The moderate half‐life in the presence of excessive GSH implied the low intrinsic reactivity of Z57117023. e) SHP1 protein was incubated with or without Z57117023 in 3,3‐dimethylglutarate buffer (pH = 7.0) for 60 min at room temperature to form a covalent adduct.
Covalent inhibitors generally inactivate their targets through a two‐step process, starting with a reversible binding event (characterized by the dissociation constant K I) and followed by covalent bond formation (represented by the first‐order rate constant of inactivation k inact). Although IC50 values are often utilized to assess the potency of covalent inhibitors, the second‐order rate constant k inact/K I is preferred because it provides a measure of covalent inhibition in a time‐ and dose‐independent manner.^[ [60], [62], [67], [68] ^] […] A single SHP1‐Z57117023 adduct was observed when SHP1 was incubated with Z57117023, with a mass shift of 295.21 Da (calculated 295.54 Da) (Figure 1e), consistent with the loss of a chlorine atom from Z57117023.
The mixtures were centrifuged to remove the unfolded SHP1 proteins, and the supernatants were spiked with a control protein CDC14A, followed by loading into SDS‐PAGE gels to quantify the relative SHP1 level.

Series [3] can be described thus: Intrinsic reactivity toward GSH, LC-MS. The series is classed as physicochemical. How it is done:
as §2
(§3) The area under the curve (AUC) of each measurement was normalized to 10 µM compounds to calculate the percent remaining. Data were fitted using Prism GraphPad 10.1.1.

The next series has as its system GSH. Nature of the series: Intrinsic reactivity toward GSH, LC-MS. Format: physicochemical. The conditions noted are these: GSH in 3,3-dimethylglutarate (DMG) buffer, LC-MS. How it is done: as §2, §3
Where [4] appears, read: pH 7, 100-fold excess GSH, pH 7.0, room temperature, read-out: half-life (t1/2) toward excess GSH (converted).

Consider two compounds from publication PMC12833730, “Discovery of a First‐in‐Class Covalent Allosteric SHP1 Inhibitor with Immunotherapeutic Activity” (Angewandte Chemie (International Ed. in English), 2025).

“And” between values parts separate entries of the source, which are not always exact repeats. Identical values can stand only once. Like-named read-outs stand apart in the source and are kept apart here.

T1 sequence (P29350 245-543): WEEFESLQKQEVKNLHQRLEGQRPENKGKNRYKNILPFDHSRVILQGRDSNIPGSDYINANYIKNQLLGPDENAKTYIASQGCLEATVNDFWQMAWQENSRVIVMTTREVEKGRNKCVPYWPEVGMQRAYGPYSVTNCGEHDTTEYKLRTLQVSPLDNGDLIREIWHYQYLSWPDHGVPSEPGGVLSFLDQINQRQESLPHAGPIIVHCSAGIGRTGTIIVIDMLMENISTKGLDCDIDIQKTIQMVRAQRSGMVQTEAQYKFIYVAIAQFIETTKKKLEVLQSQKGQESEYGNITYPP

At SHP1 [1] (pH 7.0, room temperature), `N#Cc1ccsc1NS(=O)(=O)c1ccc(NC(=O)CCl)cc1` [M029, 2-Chloro-N-(4-(N-(3-cyanothiophen-2-yl)sulfamoyl)phenyl)acetamide] came in with a k inact of 0.0038 ± 0.008 s⁻¹. In addition, the KI (inactivation) at SHP1 [1] (pH 7.0, room temperature, read-out: K I) worked out at 76.7 ± 12.5 µM. Besides, the “k inact/K I for SHP1 inactivation” value at SHP1 [1] was found to be 49.55 M⁻¹ s⁻¹. Moreover, the “k inact/K i fold higher than that of Z57117023” value at SHP1 [1] (vs Z57117023) worked out at 13 fold. The IC50 is 58.2 ± 4.6 µM on SHP2 (60-min preincubation, read-out: 60 min IC50, SHP2); 152 ± 16.6 µM on PTP1B (60-min preincubation, read-out: 60 min IC50, PTP1B); 88.6 ± 20.1 µM on PTPN22 (60-min preincubation, read-out: 60 min IC50, PTPN22). Besides, the “mass shift of SHP1 covalent adduct” value on SHP1 [2] was 319.31 ± 1.14 Da and 319.31 Da. The “fold less reactive toward GSH than Z57117023” value in series [3] (vs Z57117023) amounted to 5 fold. Also, the half-life at 10 µM in the series on GSH (setting [4]) was 34.3 h.

In the case of `O=C(CCl)Nc1ccc(S(=O)(=O)Nc2nccs2)cc1` [Z57117023, 2-chloro-N-(4-(N-(thiazol-2-yl)sulfamoyl)phenyl)acetamide], the “k inact/K I for SHP1 inactivation” value on SHP1 [1] was determined as 3.792 M⁻¹ s⁻¹. The IC50 at SHP2 (10-min preincubation, read-out: SHP2 IC50, 10 min) is above 200 µM; on SHP2 (60-min preincubation, read-out: SHP2 IC50, 60 min) it was above 200 µM; at PTP1B (column headed 60 min (c7), read-out: PTP1B IC50, 60 min), above 200 µM; on PTPN22 (10-min preincubation, read-out: PTPN22 IC50, 10 min) it was above 200 µM; at PTPN22 (60-min preincubation, read-out: PTPN22 IC50, 60 min), above 200 µM. For the same compound, the “mass shift of SHP1 covalent adduct” value at SHP1 [2] was found to be 295.21 Da. Besides, in series [3], the “reactivity toward GSH (in words)” value is listed as “minimal reactivity toward GSH”. Further, the half-life at 10 µM with GSH (pH 7, 100-fold excess GSH, 3,3-dimethylglutarate buffer pH 7.0, room temperature, read-out: half-life with GSH) is 7.07 ± 0.918 h; with GSH (setting [4]), around 7.1 h.
